Reference: patent US11786507B2, “Methods of treating HIV-associated neurological disorders (HAND)” (priority 2020, dated 2023)

Tests used:
[1] = system: hippocampal slice cultures; details: cited from earlier work
iTat mice [2] = assay: Open Field Test (OPT), locomotor activity; type: in vivo, mouse
Excerpt: (§1) Doxycycline (Dox)-inducible and astrocyte-specific HIV-1 Tat-transgenic mice (iTat) were generated as previously described.^38 Wild-type (Wt, C57BL/6) and α7 nAChR knockout mice (α7^−/−, B6.129S7-Chrna^7tm1Ba/J) were purchased from the Jackson Laboratory (Bar Harbor, ME). All the animal procedures were approved by the Institutional Animal Care and Use Committee. Mice were housed with a 12-hour light and 12-hour dark photoperiod and provided water and food ad libitum. α7^−/− iTat mice were generated by cross breeding iTat mice with α7^−/− mice. α7^−/− genotyping was slightly modified with the JumpStart™ Taq DNA Polymerase-based PCR (JumpStart™ Taq DNA Polymerase, Sigma, catalog #D9307). […] Mice of 10-14 weeks old with body weights of 20-35 grams were fed with Dox-containing diet (0.625 g/kg, Envigo, catalog #TD.01306) as stated.
(§2) Open Field Test (OPT) and Morris Water Maze (MWZ) were performed sequentially using a computerized video tracking system (Anymaze, Stoelting) to determine the spontaneous locomotor activity and spatial learning and memory, respectively. For OPT, each mouse was allowed to move freely around a clear acrylic chamber (40.5×40.5×30.5 cm) for 10 minutes. Travel distance and maximum speed was determined by the AnyMaze software. For MWZ, a circle pool (1.2 m diameter) surrounded with a curtain was divided into four equal quadrants, and four signs with different shape were fixed onto the middle of each quadrant wall above the opaque water (24±1° C.). A hidden platform (1.5 cm below water surface) was put into a certain quadrant. Two stages consisting of 5-day training and probe test were carried out. In the training stage, four trials with a 15-20 minute interval were conducted in the every-day training, and for each trial mice were allowed to freely seek the platform within 90 seconds right after they were randomly put into one quadrant facing to the pool wall. If the mice found the platform within 90 seconds, 10 seconds would be added to allow them staying on the platform for memorizing, however, if failed, they would be directed toward the platform and allowed to stay on it for 15 seconds. Mice that were immobile or floating and unable to find the platform during the training stages were excluded from the experiments. Probe test was carried out on the next day following the 5-day training stage with a 60 seconds trial, and the platform was removed to prevent the mice from climbing onto it during the testing. One day after the behavioral tests, mice were euthanized and the brains were harvested.
(§3) To determine if α7 nAChR is involved in HAND, iTat mice were fed with Dox-containing food pellets for 7 days, injected s.c. with a well-studied and highly specific positive allosteric modulator (PAM) PNU-120596 of α7 nAChR^73,74 for 5 days, and then subjected to open field test (OPT) for locomotor activity on day 14, and Morris Water Maze test (MWZ) for learning and spatial memory on day 15-20, and euthanized to harvest tissues on day 21 (FIG. 1A). Dox-containing food pellet feeding and PAM injection continued during the next 7 days of behavioral tests. To minimize the effects of injection on behavioral tests, PAM was injected 5 hours after each behavioral test.

iTat mice [3] = assay: Morris Water Maze (MWZ), training stage and probe test; type: in vivo, mouse
Excerpt: as §1, §2
as §3, with “[…],” for “injected s.c. with a well-studied and highly specific positive allosteric modulator (PAM) PNU-120596 of α7 nAChR^73,74 for 5 days,”

iTat mice [4] = assay: Western blotting of SYP, PSD-95, GFAP, Iba-1 in cortex and hippocampus; type: in vivo, mouse; details: CORT and HIP, SB239063-treated iTat vs Wt
Excerpt: as §1
A RIPA buffer (50 mM Tris.HCl, pH 8.0, 280 mM NaCl, 0.5% NP-40, 1% C24H39NaO4, 0.2 mM EDTA, 2 mM EGTA and 10% glycerol) supplemented with protease inhibitors (Millipore-Sigma, catalog #S8830) and phosphatase inhibitors (Millipore-Sigma, catalog #4906845001) was used to lyse the brain tissues and cultured cells with brief sonication on ice. Protein concentrations of the lysates were determined using a Bio-Rad DC protein assay kit (Bio-Rad, catalog #5000111). Lysates were denatured in the SDS-PAGE loading buffer at 100° C. for 10 min, then electrophoretically separated by 8-15% SDS-PAGE, blotted onto 0.45 μm polyvinylidene fluoride membrane (GE Healthcare Life Sciences, catalog #10600023), and probed using appropriate antibodies against PSD-95 (Abcam, catalog #ab18258, and 1:2000 dilution), SYP (Abcam, catalog #ab8049, and 1:1000 dilution), Iba-1 (Wako, catalog #016-20001, and 1:500 dilution) and GFAP (DAKO, catalog #z330s, and 1:2000 dilution), p-p38 (Santa Cruz, catalog #sc-166182, and 1:1000 dilution), p38 (Santa cruz, catalog #sc-535, and 1:1000 dilution), p-JNK (Santa cruz, catalog #sc-6254, and 1:1000 dilution), JNK (Santa cruz, catalog #sc-571, and 1:1000 dilution), p-ERK (Santa cruz, catalog #sc-7383, and 1:1000 dilution), and ERK (Santa cruz, catalog #sc-514302, and 1:1000 dilution), α7 nAChR (Alomone, catalog #ANC-007, and 1:1000 dilution) and β-actin (Sigma-Aldrich, catalog #A1978, and 1:2000 dilution). A Bio-Rad ChemicDoc imaging system (Bio-Rad) and Image J were used for image capturing and analysis, respectively. […]

striatal neurons = details: cited from earlier work
[5] = system: cerebellar granule neurons; details: cited from earlier work
[6] = iTat vs Wt mice, SB239063 15 mg/kg/day i.p.

Oc1ccc(-c2nc(-c3ccc(F)cc3)c(-c3ccncc3)[nH]2)cc1 [SB202190]
Tat-induced inflammation and oxidation [1]: decreased

COc1nccc(-c2c(-c3ccc(F)cc3)ncn2C2CCC(O)CC2)n1 (stereo not drawn) [SB239063]
OPT travel distance and maximum speed, Wt vs iTat mice (iTat mice [2]; SB239063 15 mg/kg/day i.p., male and female): no significant differences in travel distance and maximum speed between Wt and iTat mice
OPT performance, female vs male mice (iTat mice [2]; Wt and iTat mice in response to SB239063): both female Wt and female iTat mice performed better in the OPT than male Wt and male iTat mice
OPT travel distance, SB239063-treated vs vehicle-treated (iTat mice [2]; female Wt and iTat mice, 15 mg/kg/day i.p.): difference of travel distance between SB239063-treated and vehicle-treated female mice
MWZ probe test platform entries, time at/distance to target quadrant, time at/distance to platform (iTat mice [3]; SB239063-treated female iTat mice vs vehicle-treated female Wt and iTat and SB239063-treated female Wt): fewer platform entries, shorter time at target quadrant, distance to target quadrant, time at platform, and distance to platform
Cognition, learning and memory effects (iTat mice [3]; Wt mice treated with SB239063): Some beneficial effects
MWZ probe test latency to platform (iTat mice [3]; female iTat mice, SB239063 vs vehicle): longer latency to platform than vehicle-treated female iTat mice
MWZ training stage cumulative distance (iTat mice [3]; [6]): difference between SB239063-treated male iTat and male Wt mice on day 2 and 3 and female iTat and Wt mice on day 4
MWZ training stage escape latency (iTat mice [3]; [6]): even longer escape latency than Wt mice, with differences on day 3 and 4 for male mice
MWZ probe test platform entries, distance to target quadrant, distance to platform (iTat mice [3]; male iTat vs male Wt mice, SB239063 15 mg/kg/day i.p.): fewer platform entries, shorter distance to target quadrant and distance to platform than Wt male mice
SYP, GFAP and Iba-1 expression (iTat mice [4]; female mice): lower SYP, GFAP and Iba-1 with differences than SB239063-treated Wt mice
PSD-95 expression (iTat mice [4]; male and female): lower PSD-95 than SB239063-treated Wt mice
SYP and GFAP expression (iTat mice [4]; male mice): no differences of SYN and GFAP (except HIP) from SB239063-treated Wt mice

C[S+]([O-])c1ccc(-c2nc(-c3ccc(F)cc3)c(-c3ccncc3)[nH]2)cc1 (stereo not drawn) [SB203580]
Tat-induced neurite losses and cell death (striatal neurons): failed to block
Tat-induced apoptosis [5]: prevented
